Assay results from BindingDB's records for doi:10.7270/Q2PZ576Z (The Scripps Research Institute Molecular Screening Center, 2007).

molecular target: Sphingosine 1-phosphate receptor 3 (Homo sapiens, UniProt Q99500); assay: S1P3 receptor activation, EC50 – cell-based, NFAT-BLA reporter, dose response (AID 439); conditions: not given
Sequence (Q99500 whole entry): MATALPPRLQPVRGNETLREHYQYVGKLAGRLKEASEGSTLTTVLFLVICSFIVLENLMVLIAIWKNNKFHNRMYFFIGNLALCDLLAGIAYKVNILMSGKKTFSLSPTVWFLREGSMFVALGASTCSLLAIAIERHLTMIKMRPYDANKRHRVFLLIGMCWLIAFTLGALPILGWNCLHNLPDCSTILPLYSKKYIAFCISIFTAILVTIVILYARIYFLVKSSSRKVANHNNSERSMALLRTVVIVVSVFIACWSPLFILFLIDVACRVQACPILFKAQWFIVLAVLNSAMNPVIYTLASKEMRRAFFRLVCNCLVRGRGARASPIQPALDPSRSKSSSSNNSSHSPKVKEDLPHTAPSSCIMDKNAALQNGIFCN

SMILES | EC50 [µM]
c1ccc(-c2nnc(N3CCOCC3)nc2-c2ccccc2)cc1 [4-(5,6-diphenyl-1,2,4-triazin-3-yl)morpholine] | 6.63
CCOC(=O)N1CCN(C(=O)c2nn(-c3cc(OC)cc(OC)c3)c(=O)c3ccccc23)CC1 [4-[3-(3,5-dimethoxyphenyl)-4-keto-phthalazine-1-carbonyl]piperazine-1-carboxylic acid ethyl ester] | > 45
c1ccc(C(Cc2nc(-c3ccncc3)no2)c2ccccc2)cc1 [4-[5-(2,2-diphenylethyl)-1,2,4-oxadiazol-3-yl]pyridine] | 5.24
CCOc1ccc(-c2nc(-c3ccncc3)no2)cc1OCC [4-[5-(3,4-diethoxyphenyl)-1,2,4-oxadiazol-3-yl]pyridine] | 2.77
CCCN(CCC)CCCNC(=O)CC1Nc2ccccc2NC1=O (stereo not drawn) [MLS000046817] | > 45
CCCCn1c(NC(=O)c2ccc(F)cc2)c(C#N)c2nc3ccccc3nc21 [MLS000055622] | > 45
Cc1cc(C(=O)N(C2CCCCC2)C2CCCCC2)no1 [MLS000087301] | 25.6
O=C(Cc1cccs1)NCc1cn2ccccc2n1 [MLS000103862] | > 45
CCCc1cc(C(=O)N(C2CCCCC2)C2CCCCC2)no1 [MLS000116372] | 2.7
Cc1ccc(-n2c(=O)[nH]cc(C(=O)Nc3ccc4c(c3)OCCO4)c2=O)cc1C [N-(2,3-dihydro-1,4-benzodioxin-6-yl)-3-(3,4-dimethylphenyl)-2,4-bis(oxidanylidene)-1H-pyrimidine-5-carboxamide] | > 45
C=CCn1c(=O)c(C#N)cc2c(=O)n3ccccc3nc21 [SMR000029848] | > 45
Cc1cc(C)n(-c2nc(NCCO)c3c4c(sc3n2)CCCC4)n1 [SMR000046729] | 6.69
Cc1ccc2nc3c(cc(C#N)c(=O)n3-c3nccs3)c(=O)n2c1 [SMR000047276] | > 45
CCOC(=O)c1cc2ccc(OC(=O)c3ccco3)cc2oc1=O [ethyl 7-(2-furoyloxy)-2-oxo-2H-chromene-3-carboxylate] | 7.18

same assay, conditions: inactive by the depositor's call

SMILES | EC50 [µM]
CCCn1c(=O)c2ccccc2n2c(SCc3c(C(=O)OCC)oc4ccccc34)nnc12 [3-[[(5-keto-4-propyl-[1,2,4]triazolo[4,3-a]quinazolin-1-yl)thio]methyl]coumarilic acid ethyl ester] | 23.5
O=C(Oc1ccc(-c2nnco2)cc1)N(c1ccccc1)c1ccccc1 [4-(1,3,4-oxadiazol-2-yl)phenyl diphenylcarbamate] | 14.1
COc1ccccc1Oc1cc(C#N)c(C#N)cc1-n1nnc2ccccc21 [4-(1-benzotriazolyl)-5-(2-methoxyphenoxy)benzene-1,2-dicarbonitrile] | 17.2
Cc1ccc(C(C)C)c(OCc2nc(-c3nonc3N)no2)c1 [4-[5-[(5-methyl-2-propan-2-yl-phenoxy)methyl]-1,2,4-oxadiazol-3-yl]-1,2,5-oxadiazol-3-amine] | 74.6
c1ccc(-c2nc3nonc3nc2-c2ccccc2)cc1 [5,6-diphenyl-[1,2,5]oxadiazolo[3,4-b]pyrazine] | 41.6
c1ccc(C(Cc2nc(-c3ccccn3)no2)c2ccccc2)cc1 [5-(2,2-diphenylethyl)-3-(2-pyridinyl)-1,2,4-oxadiazole] | 21.1
c1ccc(C(Cc2nc(-c3cccnc3)no2)c2ccccc2)cc1 [5-(2,2-diphenylethyl)-3-(3-pyridinyl)-1,2,4-oxadiazole] | 13.5
CCOc1ccc(-c2nc(-c3ccccc3)no2)cc1OCC [5-(3,4-diethoxyphenyl)-3-phenyl-1,2,4-oxadiazole] | 19.2
Cn1c(=O)c2c(-c3ccccc3)n(C3CCCCC3)cc2n(C)c1=O [6-cyclohexyl-1,3-dimethyl-5-phenyl-pyrrolo[3,4-d]pyrimidine-2,4-dione] | 31.2
C/C(Cl)=C/Cn1c(N2CCCC2)nc2c1c(=O)n(C)c(=O)n2C [7-((Z)-3-Chloro-but-2-enyl)-1,3-dimethyl-8-pyrrolidin-1-yl-3,7-dihydro-purine-2,6-dione] | 38.5
COCCCn1c(N)c(C(=O)NCCC(C)C)c2nc3ccccc3nc21 [MLS000041744] | 31.4
O=C(NCc1ccco1)c1cc2ccc(O)cc2oc1=O [MLS000049147] | 17.7
Nc1c(C(=O)NC2CCCC2)c2nc3ccccc3nc2n1CC1CCCO1 (stereo not drawn) [MLS000080255] | 14.7
Cc1cccc2cc3c(NC(=O)c4ccccn4)nn(C)c3nc12 [MLS000082760] | 127
Cc1ccc(NC(=O)CC2Nc3ccccc3NC2=O)cc1Cl (stereo not drawn) [N-(3-chloranyl-4-methyl-phenyl)-2-(3-oxidanylidene-2,4-dihydro-1H-quinoxalin-2-yl)ethanamide] | 80.8
CCC(C)c1ccc2oc(-c3ccc(NC(=O)c4nnc[nH]4)cc3)nc2c1 (stereo not drawn) [N-[4-(5-sec-butyl-1,3-benzoxazol-2-yl)phenyl]-1H-1,2,4-triazole-3-carboxamide] | 19.3
CC(C)Cn1c(N)c(C(=O)NCc2cccs2)c2nc3ccccc3nc21 [SMR000043082] | 29.7
N=c1c(C(=O)NCc2ccco2)cc2c(=O)n3ccccc3nc2n1Cc1ccc(Cl)cc1 [SMR000047818] | 63.9
Cc1onc(-c2c(Cl)cccc2Cl)c1C(=O)N1CCc2ccccc21 [[3-(2,6-dichlorophenyl)-5-methyl-1,2-oxazol-4-yl]-(2,3-dihydroindol-1-yl)methanone] | 30.8
